Measurements taken from the CheMixHub viscosity set.
± gives the uncertainty stated by the source.

Assay: xn = mol fraction of the nth substance listed

C[Si]1(C)O[Si](C)(C)O[Si](C)(C)O[Si](C)(C)O1 + CCCCCCCCCCCC
viscosity [mPa·s], 103 kPa
Settings | 298.15 K | 308.15 K | 318.15 K
x1 = 0.05 | 1.314 ± 0.041 | 1.107 ± 0.041 | 0.951 ± 0.041
x1 = 0.1 | 1.32 ± 0.041 | 1.113 ± 0.041 | 0.962 ± 0.041
x1 = 0.15 | 1.342 ± 0.041 | 1.132 ± 0.041 | 0.972 ± 0.041
x1 = 0.2 | 1.352 ± 0.041 | 1.141 ± 0.041 | 0.982 ± 0.041
x1 = 0.25 | 1.366 ± 0.041 | 1.153 ± 0.041 | 0.991 ± 0.041
x1 = 0.3 | 1.384 ± 0.041 | 1.167 ± 0.041 | 1 ± 0.041
x1 = 0.35 | 1.402 ± 0.041 | 1.183 ± 0.041 | 1.012 ± 0.041
x1 = 0.3999 | 1.431 ± 0.041 | 1.202 ± 0.041 | 1.028 ± 0.041
x1 = 0.45 | 1.454 ± 0.042 | 1.225 ± 0.041 | 1.048 ± 0.041
x1 = 0.5 | 1.489 ± 0.042 | 1.251 ± 0.041 | 1.068 ± 0.041
x1 = 0.5501 | 1.517 ± 0.042 | 1.278 ± 0.041 | 1.089 ± 0.041
x1 = 0.6 | 1.554 ± 0.042 | 1.309 ± 0.041 | 1.114 ± 0.041
x1 = 0.65 | 1.6 ± 0.042 | 1.345 ± 0.041 | 1.142 ± 0.041
x1 = 0.6999 | 1.643 ± 0.042 | 1.38 ± 0.042 | 1.173 ± 0.041
x1 = 0.75 | 1.7 ± 0.042 | 1.426 ± 0.042 | 1.209 ± 0.041
x1 = 0.7999 | 1.759 ± 0.043 | 1.473 ± 0.042 | 1.248 ± 0.041
x1 = 0.85 | 1.828 ± 0.043 | 1.523 ± 0.042 | 1.292 ± 0.041
x1 = 0.9 | 1.91 ± 0.043 | 1.588 ± 0.042 | 1.343 ± 0.042
x1 = 0.95 | 1.985 ± 0.043 | 1.652 ± 0.042 | 1.39 ± 0.042

CC(=O)O + CC(C)O
viscosity [mPa·s], 101 kPa
Settings | x1 = 0.00598 | x1 = 0.02919 | x1 = 0.04037 | x1 = 0.0567 | x1 = 0.1073 | x1 = 0.1528 | x1 = 0.1938 | x1 = 0.2308
298.15 K | 2.633 ± 0.53 | 2.564 ± 0.52 | 2.503 ± 0.51 | 2.435 ± 0.49 | 2.286 ± 0.46 | 2.221 ± 0.45 | 2.133 ± 0.43 | 2.058 ± 0.41
308.15 K | 1.962 ± 0.4 | 1.906 ± 0.38 | 1.877 ± 0.38 | 1.843 ± 0.37 | 1.75 ± 0.35 | 1.696 ± 0.34 | 1.651 ± 0.33 | 1.621 ± 0.33
318.15 K | 1.521 ± 0.31 | 1.491 ± 0.3 | 1.474 ± 0.3 | 1.454 ± 0.29 | 1.4 ± 0.28 | 1.363 ± 0.28 | 1.33 ± 0.27 | 1.306 ± 0.26

CCNc1ccccc1 + CCCCCCCCO
viscosity [mPa·s], 101 kPa
Settings | 303.15 K | 308.15 K | 313.15 K
x1 = 0.0802 | 5.589 ± 1.1 | 4.869 ± 0.97 | 3.822 ± 0.77
x1 = 0.1625 | 5.024 ± 1 | 4.381 ± 0.88 | 3.478 ± 0.7
x1 = 0.2541 | 4.463 ± 0.89 | 3.898 ± 0.78 | 3.134 ± 0.63
x1 = 0.3514 | 3.937 ± 0.79 | 3.445 ± 0.69 | 2.808 ± 0.56
x1 = 0.4421 | 3.504 ± 0.7 | 3.071 ± 0.61 | 2.537 ± 0.51
x1 = 0.5012 | 3.248 ± 0.65 | 2.851 ± 0.57 | 2.375 ± 0.48
x1 = 0.5741 | 2.96 ± 0.59 | 2.601 ± 0.52 | 2.19 ± 0.44
x1 = 0.6214 | 2.787 ± 0.56 | 2.451 ± 0.49 | 2.078 ± 0.42
x1 = 0.6952 | 2.538 ± 0.51 | 2.235 ± 0.45 | 1.915 ± 0.38
x1 = 0.7412 | 2.395 ± 0.48 | 2.112 ± 0.42 | 1.822 ± 0.36
x1 = 0.7954 | 2.238 ± 0.45 | 1.975 ± 0.4 | 1.717 ± 0.34
x1 = 0.8412 | 2.114 ± 0.42 | 1.867 ± 0.37 | 1.635 ± 0.33
x1 = 0.8921 | 1.984 ± 0.4 | 1.756 ± 0.35 | 1.549 ± 0.31

CC(=O)O + Cc1ccccc1
viscosity [mPa·s]
Settings | 293.15 K | 303.15 K | 313.15 K | 323.15 K
101 kPa, x2 = 0.0642 | – | – | 0.9448 ± 0.025 | 0.8122 ± 0.022
101 kPa, x2 = 0.2052 | – | – | 0.6513 ± 0.017 | 0.4846 ± 0.013
101 kPa, x2 = 0.7929 | – | – | 0.4859 ± 0.013 | 0.4171 ± 0.011
101.33 kPa, x2 = 0.022 | 1.143 ± 0.056 | 0.9772 ± 0.049 | 0.8709 ± 0.044 | 0.7709 ± 0.04
101.33 kPa, x2 = 0.0569 | 1.06 ± 0.052 | 0.907 ± 0.046 | 0.8111 ± 0.041 | 0.7288 ± 0.038
101.33 kPa, x2 = 0.1191 | 0.9245 ± 0.046 | 0.8216 ± 0.042 | 0.731 ± 0.038 | 0.641 ± 0.034
101.33 kPa, x2 = 0.1879 | 0.8359 ± 0.043 | 0.741 ± 0.038 | 0.6554 ± 0.035 | 0.59 ± 0.032
101.33 kPa, x2 = 0.2626 | 0.7694 ± 0.04 | 0.6753 ± 0.036 | 0.603 ± 0.032 | 0.5446 ± 0.03
101.33 kPa, x2 = 0.352 | 0.7293 ± 0.038 | 0.6216 ± 0.033 | 0.561 ± 0.031 | 0.5072 ± 0.028
101.33 kPa, x2 = 0.4459 | 0.6757 ± 0.036 | 0.5903 ± 0.032 | 0.522 ± 0.029 | 0.474 ± 0.027
101.33 kPa, x2 = 0.4893 | 0.6542 ± 0.035 | 0.5766 ± 0.031 | 0.5131 ± 0.029 | 0.4647 ± 0.026
101.33 kPa, x2 = 0.5579 | 0.6349 ± 0.034 | 0.5578 ± 0.03 | 0.5022 ± 0.028 | 0.4559 ± 0.026
101.33 kPa, x2 = 0.6302 | 0.6233 ± 0.033 | 0.5464 ± 0.03 | 0.491 ± 0.028 | 0.4486 ± 0.026
101.33 kPa, x2 = 0.6817 | 0.6144 ± 0.033 | 0.5382 ± 0.03 | 0.4828 ± 0.027 | 0.4384 ± 0.025
101.33 kPa, x2 = 0.7391 | 0.6055 ± 0.032 | 0.5304 ± 0.029 | 0.4757 ± 0.027 | 0.4319 ± 0.025
101.33 kPa, x2 = 0.861 | 0.5941 ± 0.032 | 0.5201 ± 0.029 | 0.4619 ± 0.026 | 0.42 ± 0.025
101.33 kPa, x2 = 0.9262 | 0.588 ± 0.032 | 0.513 ± 0.029 | 0.4611 ± 0.026 | 0.4194 ± 0.025
101.33 kPa, x2 = 0.9645 | 0.5842 ± 0.032 | 0.5088 ± 0.028 | 0.4574 ± 0.026 | 0.4163 ± 0.024

CCNc1ccccc1 + CCCCCCCO
viscosity [mPa·s], 101 kPa
Settings | 303.15 K | 308.15 K | 313.15 K
x1 = 0.0812 | 4.393 ± 0.88 | 4.271 ± 0.85 | 4.154 ± 0.83
x1 = 0.1589 | 4.051 ± 0.81 | 3.907 ± 0.78 | 3.774 ± 0.76
x1 = 0.2456 | 3.705 ± 0.74 | 3.541 ± 0.71 | 3.394 ± 0.68
x1 = 0.3612 | 3.288 ± 0.66 | 3.108 ± 0.62 | 2.948 ± 0.59
x1 = 0.4304 | 3.063 ± 0.61 | 2.875 ± 0.58 | 2.711 ± 0.54
x1 = 0.5023 | 2.847 ± 0.57 | 2.653 ± 0.53 | 2.486 ± 0.5
x1 = 0.5744 | 2.646 ± 0.53 | 2.449 ± 0.49 | 2.278 ± 0.46
x1 = 0.6415 | 2.474 ± 0.5 | 2.273 ± 0.45 | 2.103 ± 0.42
x1 = 0.7125 | 2.304 ± 0.46 | 2.102 ± 0.42 | 1.932 ± 0.39
x1 = 0.7754 | 2.166 ± 0.43 | 1.963 ± 0.39 | 1.794 ± 0.36
x1 = 0.8214 | 2.071 ± 0.41 | 1.867 ± 0.37 | 1.7 ± 0.34
x1 = 0.8741 | 1.966 ± 0.39 | 1.765 ± 0.35 | 1.6 ± 0.32
x1 = 0.9214 | 1.878 ± 0.38 | 1.678 ± 0.34 | 1.516 ± 0.3
